The text below walks through data of patent publication US5348977A, “Cobalt complexes as anti-cancer agents” (Warner Lambert Company, priority 1991, dated 1994).

What is called IC50 is the point on the concentration scale where inhibition reaches its midpoint.

Data set [1] relates to AA8 cells. Nature of the data set: Growth inhibition, AA8 cells with lethally-irradiated AA8 feeder cells, aerobic or hypoxic 18 h (Table 3). To be noted: for IC50: AA8, aerobic, 18 h exposure, read-out: IC50 (air) AA8; for HF(air): IC50 (AA8)/IC50 (UV4), aerobic, 1080 min; for IC50 (air)/IC50 (N2) AA8: aerobic IC50 /hypoxic IC50, AA8, 18 h. Type of data set: cell-based, hamster. The protocol:
(§1) IC50 Growth inhibition studies were performed as described in detail elsewhere (W. R. Wilson, R. F. Anderson and W. A. Denny. J. Med. Chem., 1989, 32, 23; G. J. Finlay, B. C. Baguley and W. R. Wilson. Anal. Biochem., 1984, 139, 172.), using 200 viable AA8 or 300 viable UV4 cells plus 5000 lethally-irradiated AA8 feeder cells per well in 96-well tissue culture dishes. AA8 and UV4 cells were maintained in logarithmic-phase growth in […] tissue culture flasks with subculture twice weekly by trypsinization. The growth medium was antibiotic-free Alpha MEM with 10% v/v heat-inactivated (56° C., 40 min) fetal calf serum. Doubling times were approximately 14h for AA8 and […] cells.
(§2) air/N2 ratio Ratio of IC50 values after exposure as detailed above under either aerobic (air) or hypoxic (N2) conditions (=aerobic IC50 /hypoxic IC50).
(§3) HF Ratio of IC50 values for a compound after exposure as detailed above against AA8 and UV4 cell lines (=IC50 (AA8)/IC50 (UV4)).

Data set [2] deals with UV4 cells. Nature of the data set: Growth inhibition, UV4 cells with lethally-irradiated AA8 feeder cells, aerobic or hypoxic 18 h (Table 3). In kind it is cell-based. To be noted: aerobic IC50 /hypoxic IC50, UV4, 18 h. The protocol:
as §1, §2, §3

A short description of data set [3]: Square wave voltammetry, peak potential of cathodic wave. Type of data set: physicochemical. To be noted: vs NHE, platinum disc electrode, 0.15 M (n-Bu4 N)ClO4 in CH2 Cl2, ferrocene internal reference. The source says: E1/2 Peak potentials (vs NHE) of cathodic wave, determined by square wave voltammetry at a platinum disc electrode in 0.15 M (n-Bu4 N)ClO4 in CH2 Cl2 with ferrocene as an internal reference.

The subject of data set [4] is AA8 cells. Nature of the data set: Growth inhibition, AA8 cells, aerobic 18 h (Table 2). Type of data set: cell-based, hamster. To be noted: 18 h exposure, 5 determinations. As for the experimental part:
(§4) ([Co(Macac)2 (DCE)]ClO4) was prepared as described in Example E. Growth inhibition studies were performed as described in detail by W. R. Wilson, R. F. Anderson and W. A. Denny in J. Med. Chem., 1989 32, 23 and by G. J. Finlay, B. C. Baguley and W. R. Wilson in Anal. Biochem., 1984, 139, 172, herein specifically incorporated by reference. 200 AA8 cells in 96 well tissue culture dishes, 300 UV4 cells in 96 well tissue culture dishes, 300 UV5 cells in 96 well tissue culture dishes, 50 EMT6 cells in 96 well tissue culture dishes, 200 SCC7 cells in 96 well tissue culture dishes, 1500 FME cells in 96 well tissue culture dishes and 500 HCT-8 cells in 96 well tissue culture dishes were prepared. The cells were maintained in logarithmic-phase growth in 25 cm tissue culture flasks with subculture twice weekly by trypsinization. The growth medium was antibiotic-free Alpha MEM with 10% v/v heat-inactivated (56° C., 40 min.) fetal calf serum. Doubling times were approximately 14 hours for AAS, 16 hours for UV4, 16 hours for UV5, 10 hours for EMT6, 14 hours for SCC7, 24 hours for FME and 20 hours for HCT-8 cells. Cultures were tested for mycoplasma contamination frequently, using a cytochemical staining method (I. R. Chen, Exp. Cell Res., 1977, 104, 255). […]

The subject of data set [5] is UV4 cells. Nature of the data set: Growth inhibition, UV4 cells, aerobic 18 h (Table 2). In kind it is cell-based. To be noted: 18 h exposure, 5 determinations. The protocol: as §4
For data set [6], the system named is UV5 cells. Nature of the data set: Growth inhibition, UV5 cells, aerobic 18 h (Table 2). In kind it is cell-based. To be noted: 18 h exposure, 1 determination. As for the experimental part:
as §4

Data set [7] deals with EMT6 cells. Nature of the data set: Growth inhibition, EMT6 cells, aerobic 18 h (Table 2). Type of data set: cell-based. To be noted: 18 h exposure, 6 determinations. As for the experimental part: as §4
Data set [8] has as its system SCC7 cells. Nature of the data set: Growth inhibition, SCC7 cells, aerobic 18 h (Table 2). Type of data set: cell-based. To be noted: 18 h exposure, 1 determination. The protocol: as §4
Data set [9] deals with FME cells. Nature of the data set: Growth inhibition, FME cells, aerobic 18 h (Table 2). Type of data set: cell-based, human. The protocol: as §4
Data set [10] deals with HCT-8 cells. Nature of the data set: Growth inhibition, HCT-8 cells, aerobic 18 h (Table 2). To be noted: HCT-8 (human colon carcinoma), 18 h exposure, 1 determination. In kind it is cell-based. The protocol:
as §4

As to [Co(Clacac)2 (BCE)]Cl [Compound 5], in data set [1], the half-inhibitory concentration (IC50) is 26100 ± 2000 nM, the “HF(air)” value amounted to 12.8 ± 3.5 and the “IC50 (air)/IC50 (N2) AA8” value amounted to 0.54 ± 0.12. For the same substance, in data set [2], the “IC50 (air)/IC50 (N2) UV4” value was found to be 0.92 ± 0.21. For the same substance, the E1/2 in data set [3] is reported as -132 mV.

On to [Co(Macac)2 (DCE)]ClO4 [Compound 7], for which the IC50 in data set [4] was 4560 ± 620 nM; in data set [5] it was 100 ± 20 nM; in data set [6] it was 2640 nM; in [7] it was 1610 ± 210 nM; in data set [8], 310 nM; in [9] (FME (human breast carcinoma), aerobic, 18 h exposure, 6 determinations) it was 1300 ± 130 nM. Besides, the IC50 turned out to be 4440 nM in [10] and 2910 ± 470 nM in data set [1]. The “potency in human lines as compared to AA8” value in data set [9] (FME and HCT-8 versus AA8, aerobic) is listed as “higher potency (lower IC50) in both of the human lines as compared to AA8”. The “HF(air)” value in data set [1] was found to be 50.8 ± 3.7. For the same substance, in data set [1], the “IC50 (air)/IC50 (N2) AA8” value worked out at 2.81 ± 0.16. The “IC50 (air)/IC50 (N2) UV4” value in [2] amounted to 2.03 ± 0.47. Moreover, in data set [3], the E1/2 is -307 mV.

Consider [Co(Macac)2 (BCE)]ClO4 [Compound 2], for which, in data set [1], the IC50 stood at 992000 nM, the “HF(air)” value is on record as 3.25 and the “IC50 (air)/IC50 (N2) AA8” value is reported as less than 1. Besides, the E1/2 in data set [3] is reported as -420 mV.

For the substance [Co(acac)2 (DCE)]ClO4 [Compound 6], in [1], the IC50 is 1750 ± 100 nM, the “HF(air)” value was 48.2 ± 9.0 and the “IC50 (air)/IC50 (N2) AA8” value was 1.33 ± 0.13. For the same substance, the “IC50 (air)/IC50 (N2) UV4” value in [2] was found to be 0.85 ± 0.03. The E1/2 in data set [3] was -232 mV.

Regarding [Co(Pracac)2 (BCE)]ClO4 [Compound 4], in [1], the half-inhibitory concentration (IC50) was 18500 ± 3300 nM, the “HF(air)” value is reported as 3.5 ± 0.7 and the “IC50 (air)/IC50 (N2) AA8” value came to 0.85 ± 0.35. Besides, the “IC50 (air)/IC50 (N2) UV4” value in data set [2] was 1.20 ± 0.50. Also, the E1/2 in data set [3] is reported as -500 mV.

[Co(Etacac)2 (BCE)]ClO4 [Compound 3]: in data set [1], the IC50 was determined as 139000 ± 18300 nM, the “HF(air)” value is reported as 4.8 ± 1.4 and the “IC50 (air)/IC50 (N2) AA8” value is recorded as 0.79 ± 0.24. Besides, the “IC50 (air)/IC50 (N2) UV4” value in [2] turned out to be 1.77 ± 0.75. Further, the E1/2 in data set [3] was -460 mV.

On to [Co(acac)2 (BCE)]ClO4 [Compound 1], for which, in data set [1], the half-maximal inhibitory concentration (IC50) stood at 893000 ± 161000 nM, the “HF(air)” value is given as 14.0 ± 4.3 and the “IC50 (air)/IC50 (N2) AA8” value turned out to be 0.42 ± 0.06. Further, the “IC50 (air)/IC50 (N2) UV4” value in [2] amounted to 3.76 ± 1.46. For the same substance, the E1/2 in data set [3] is given as -308 mV.

As for “[Co(Etacac)2 (DCE)]Cl.2H2 O [Compound 8]”, in data set [1], the half-inhibitory concentration (IC50) came out at 1560 ± 80 nM, the “HF(air)” value came to 21.2 ± 4.0 and the “IC50 (air)/IC50 (N2) AA8” value is 1.28 ± 0.23. Moreover, in [2], the “IC50 (air)/IC50 (N2) UV4” value is recorded as 2.14 ± 0.56. The E1/2 in data set [3] is listed as -352 mV.
